Experiments:
[1] = From the text: Ion concentrations exceeding the maximum values established by the solubility product should lead to precipitations.
[2] = cited from earlier work

bromide ions in saturated chlorhexidine bromide solution [1] [mg per liter] | chlorhexidine dication in saturated chlorhexidine bromide solution [1] | SMILES | water solubility [2]
~450 | approximately 1400 mg per liter | Br.Br.N=C(NCCCCCCNC(=N)NC(=N)Nc1ccc(Cl)cc1)NC(=N)Nc1ccc(Cl)cc1 [chlorhexidine dibromide] | 
 |  | CCCCCCCCCCCCCCCC[N+](C)(C)C.[Br-] [cetrimide, N-cetyl-N,N,N-trimethylammonium bromide] | approx. 67 g/l

— patent publication US6844306B2, “Water-soluble, chlorhexidine-containing compositions and use thereof” (Degussa AG, priority 2000, dated 2005)
